Laboratory results as given in patent US20150056702A1, “METHOD AND KIT FOR CULTURING STEM CELLS” (China Medical University, priority 2013, published 2015).

Legend:
[1] = test system: Pou5fl-GFP MEF cells; experiment: Examination of iPS cell generation efficiency (GFP fluorescence); assay type: cell-based, mouse
From the text: The MEF cells were isolated from Pou5fl-GFP transgenic mice (The Jackson lab). The pcDNA-Oct4, pcDNA-Sox2, pcDNA-c-Myc, and pcDNA-Klf4 plasmids were introduced once every two days (4 times total) into the Pou5fl-GFP MEF cells to generate iPS cells through co-transfection. The medium was changed to BP-containing medium 6 days post-transfection, and the medium was exchanged everyday. On day 9, the MEF cells were passaged onto feeder cells provided by Example 1 and the GFP-positive clones were observed. Finally, the GFP fluorescent signals of the iPS cells were detected by a fluorescent microscope. The fluorescent signal intensity is directly proportional to the cell generation efficiency.
This example includes two groups, BP (T+P) and BP (T), wherein BP (T+P) refers to the group cultured with the experimental group medium (BP10) post-transfection and after placing onto feeder cells, and BP (T) refers to the group cultured with the experimental group medium (BP10) post-transfection.

[2] = test system: ES cells; experiment: Examination of cell survival (MTT assay); assay type: cell-based, mouse; conditions: for relative cell survival rate: control = 100
Procedure: The following steps were conducted in order to culture ES cells: • (1) preparing a stem cell medium: DMEM+15% heat-inactivated FBS+NEAA (0.1 mM)+L-glutamine (2 mM)+β-mercaptoethanol (0.2 mM); • (2) preparing a BP-containing solution: dissolving BP into DMSO to form a BP-containing solution (100 mg/ml), and storing the solution at −20° C.; • (3) adding different amounts of the BP-containing solution in step (2) into the stem cell medium in step (1) to form different BP-containing mediums, wherein the amount of BP were about 5, 10, 20 or 40 μg per milliliter of the stem cell medium respectively (i.e. the experimental group mediums: BP5, BP10, BP20 and BP40); and • (4) using the BP-containing medium of in step (3) to culture a ES cell (retrieved from the embryos in the blastula stage of 129sv/J mice) at 37° C., 5% CO2 and 95% humidity on the feeder cells provided by Example 1.
In this example, 3-(4,5-dimethylthiazol-2-yl)-2,5-diphenyl tetrazolium bromide (MTT) was used to determine if the cell survival rate of stem cells will be influenced when BP was served as a substitute for LIF.
MTT is a water-soluble tetrazolium salt which can react in the mitochondrial respiratory chain in living cells, to metabolize and reduce the tetrazolium bromide shown in the structure of MTT and to form an water-insoluble purple crystal formazan under the reaction of succinate dehydrogenase (SDH) and cytochrome c (cyt c). The amount of the produced crystal is directly proportional to the number of living cells (because the SDH will disappear from dead cells and the MTT cannot be reduced). Furthermore, mitochondrium is an organelle in cells most sensitive to the environment, and thus, the MTT assay could serve as a marker of the survival rate of cells treated by a drug.
An experimental group medium (BP5, BP10, BP20 or BP40) and a control group medium (without BP) were added respectively into a 96-well micro-culture plate to culture ES cells with an initial density of 5×10^3 per well for 24 to 72 hours. Then, 10 μl of 0.5 mg/ml MTT (Sigma) was added into each well and the cells were incubated in an incubator at 37° C. and 5% CO2 for 2 to 4 hours. The medium was removed, and 100 μl of DMSO was added into each well and maintained at 37° C. for 10 minutes. The absorbances of the samples were measured at a wavelength of 570 nm to obtain the data of the experimental group (with BP) and control group (without BP). The absorbance of control group was served as a reference to calculate the relative cell survival rate of each experimental group.

`CCCC=C1OC(=O)c2ccccc21` [BP, n-butylidenephthalide] was tested, and the “GFP fluorescence intensity in the iPS cells formed” value (“GFP fluorescence intensity” below) ([1]; BP (T): BP10 medium post-transfection, Day 7) was 20.5, the “GFP fluorescence intensity” value ([1]; BP (T): BP10 medium post-transfection, Day 14) was 70.5 and the “GFP fluorescence intensity” value ([1]; BP (T): BP10 medium post-transfection, Day 20) was 65.5. The “GFP fluorescence intensity” value ([1]; BP (T+P): BP10 medium post-transfection and after placing onto feeder cells, Day 7) was 27.5, the “GFP fluorescence intensity” value ([1]; BP (T+P): BP10 medium post-transfection and after placing onto feeder cells, Day 14) was 82 and the “GFP fluorescence intensity” value ([1]; BP (T+P): BP10 medium post-transfection and after placing onto feeder cells, Day 20) was 92.5. The “GFP fluorescent signals (iPS cell generation efficiency)” value ([1]; BP-containing iPS cell medium vs control group (without BP), result in words) was “higher GFP fluorescent signals”, the “relative cell survival rate” value ([2]; BP5 medium (about 5 μg BP/ml), 24 hours) was 95.212 and the “relative cell survival rate” value ([2]; BP5 medium (about 5 μg BP/ml), 72 hours) was 99.816. The “relative cell survival rate” value ([2]; BP10 medium (about 10 μg BP/ml), 24 hours) was 98.092, the “relative cell survival rate” value ([2]; BP10 medium (about 10 μg BP/ml), 72 hours) was 93.848 and the “relative cell survival rate” value ([2]; BP20 medium (about 20 μg BP/ml), 24 hours) was 95.076. For the same compound, the “relative cell survival rate” value ([2]; BP20 medium (about 20 μg BP/ml), 72 hours) was 92.399, the “relative cell survival rate” value ([2]; BP40 medium (about 40 μg BP/ml), 24 hours) was 97.550 and the “relative cell survival rate” value ([2]; BP40 medium (about 40 μg BP/ml), 72 hours) was 90.128. For the same compound, the “survival rate of stem cells” value ([2]; addition of BP into the ES cell medium, result in words) was “will not affect the survival rate of stem cells”.
